Assay results published in patent US20180185408A1, “ANTIFUNGAL NYLON-3 POLYMERS AND COMBINATION THERAPY USING THEM TO TREAT FUNGAL INFECTIONS” (priority 2016, published 2018).
In brackets after ≈: the same amount, converted by molar mass. Several values for one entry are separate records, joined by “and”; a condition that tells them apart may be missing. Equal values may be shown once. Read-outs that look alike come from different tables or passages of the source.

Tests used:
Assay type in all cases: cell-based
Candida albicans [1] = assay: Minimum fungicidal concentration (MFC), plating after MIC assay
filamentous fungi = assay: MIC100 against non-Aspergillus filamentous fungi (CLSI M38-A2)
Cryptococcus gattii [2] = assay: Minimum fungicidal concentration (MFC), plating after MIC assay; conditions: Cryptococcus gattii, Sensitive, RPMI 1640 (0.2% Glucose), […]10^3 cells/mL, 37° C., read-out: MFC
Candida spp. = assay: MIC and MFC by broth microdilution, summary over Candida strains
Cryptococcus gattii [3] = assay: MIC by broth microdilution (CLSI M27-A3); conditions: Cryptococcus gattii, […]10^3 cells/mL, read-out: MIC
Candida lusitaniae [4] = assay: Minimum fungicidal concentration (MFC), plating after MIC assay; conditions: Clavispora lusitaniae, C. Lusitania (CL3), Sensitive; RPMI 1640 (0.2% Glucose); […]10^5 cells/mL; 30° C.; read-out: MFC
Candida albicans [5] = assay: MIC by broth microdilution (CLSI M27-A3); parameters: polymer efficacy against budding yeasts, 50%: unit not given here; conditions: for MIC: read-out: MIC
Cryptococcus neoformans [6] = assay: Minimum fungicidal concentration (MFC), plating after MIC assay
Cryptococcus spp. = assay: MIC and MFC by broth microdilution, summary over Cryptococcus strains
Cryptococcus neoformans [7] = assay: MIC by broth microdilution (CLSI M27-A3); conditions: for MIC: […]10^3 cells/mL
Candida lusitaniae [8] = assay: MIC by broth microdilution (CLSI M27-A3)

OC(Cn1cncn1)(Cn1cncn1)c1ccc(F)cc1F [FLC, fluconazole]
MFC (Candida albicans [1]; C. albicans (E4), Amp B Resistant, RPMI 1640 (0.2% Glucose), […]10^5 cells/mL, 30° C.): >200 µg/mL | MFC (Candida albicans [1]; C. albicans (Gu5), Fluconazole Resistant, RPMI 1640 (0.2% Glucose), […]10^5 cells/mL, 30° C.): >200 µg/mL | MFC (Candida albicans [1]; C. albicans (K1), Fluconazole Resistant, RPMI 1640 (0.2% Glucose), […]10^5 cells/mL, 30° C.): >200 µg/mL | MFC (Candida albicans [1]; C. albicans (SCG5314), Sensitive, RPMI 1640 (0.2% Glucose), […]10^5 cells/mL, 30° C.): >200 µg/mL | MFC (Candida albicans [1]; Candida albicans, SC5314, read-out: MFC): > 200 µg/mL and > 653 µM | MFC (Candida albicans [1]; Candida albicans, read-out: MFC): > 200 µg/mL and > 653 µM | MFC (Candida albicans [1]; E4, […]10^5 cells/mL, 30°C, avg., listed as FLU): >200 µg/mL | MFC (Candida albicans [1]; E4, […]10^5 cells/mL, 30°C, avg., listed as FLU, read-out: MFC): >653 µM | MFC (Candida albicans [1]; E4, […]10^5 cells/mL, 30°C, trial 1, listed as FLU): >200 µg/mL | MFC (Candida albicans [1]; E4, […]10^5 cells/mL, 30°C, trial 1, listed as FLU, read-out: MFC): >653 µM | MFC (Candida albicans [1]; E4, […]10^5 cells/mL, 30°C, trial 2, listed as FLU): >200 µg/mL | MFC (Candida albicans [1]; E4, […]10^5 cells/mL, 30°C, trial 2, listed as FLU, read-out: MFC): >653 µM | MFC (Candida albicans [1]; Gu5, […]10^5 cells/mL, 30°C, avg., listed as FLU): >200 µg/mL | MFC (Candida albicans [1]; Gu5, […]10^5 cells/mL, 30°C, avg., listed as FLU, read-out: MFC): >653 µM | MFC (Candida albicans [1]; Gu5, […]10^5 cells/mL, 30°C, trial 1, listed as FLU): >200 µg/mL | MFC (Candida albicans [1]; Gu5, […]10^5 cells/mL, 30°C, trial 1, listed as FLU, read-out: MFC): >653 µM | MFC (Candida albicans [1]; Gu5, […]10^5 cells/mL, 30°C, trial 2, listed as FLU): >200 µg/mL | MFC (Candida albicans [1]; Gu5, […]10^5 cells/mL, 30°C, trial 2, listed as FLU, read-out: MFC): >653 µM | MFC (Candida albicans [1]; K1, […]10^5 cells/mL, 30°C, avg., listed as FLU): >200 µg/mL | MFC (Candida albicans [1]; K1, […]10^5 cells/mL, 30°C, avg., listed as FLU, read-out: MFC): >653 µM | MFC (Candida albicans [1]; K1, […]10^5 cells/mL, 30°C, trial 2, listed as FLU): >200 µg/mL | MFC (Candida albicans [1]; K1, […]10^5 cells/mL, 30°C, trial 2, listed as FLU, read-out: MFC): >653 µM | MFC (Candida albicans [1]; SC5314, […]10^5 cells/mL, 30°C, avg., listed as FLU): >200 µg/mL | MFC (Candida albicans [1]; SC5314, […]10^5 cells/mL, 30°C, avg., listed as FLU, read-out: MFC): >653 µM | MFC (Candida albicans [1]; SC5314, […]10^5 cells/mL, 30°C, trial 1, listed as FLU): >200 µg/mL | MFC (Candida albicans [1]; SC5314, […]10^5 cells/mL, 30°C, trial 1, listed as FLU, read-out: MFC): >653 µM | MIC50 (filamentous fungi; Cryptococcus depauperatus, CBS7855, Filobasidiella depauperata isolate CBS 7855, 50% reduction in growth): 64 µg/mL (≈ 209 µM) | MFC (Cryptococcus gattii [2]; C. gattii (C751)): 37.5 µg/mL (≈ 122 µM) | MFC (Cryptococcus gattii [2]; C. gattii (WM275)): > 100 µg/mL | MFC (Candida spp.; Candida resistant strains (totally resistant)): > 654 µM | MIC and MFC values (Candida spp.; Candida sensitive strains): low μM | MIC (Cryptococcus gattii [3]; 48 h, C751, 30°C, OD600 48 h, Table 15): 5.2 µM | MIC (Cryptococcus gattii [3]; 48 h, C751, 30°C, OD600 48 h): 1.6 µg/mL | MIC (Cryptococcus gattii [3]; 48 h, WM276, 30°C, OD600 48 h, Table 15): 2.6 µM | MIC (Cryptococcus gattii [3]; 48 h, WM276, 30°C, OD600 48 h): 0.8 µg/mL | MIC (Cryptococcus gattii [3]; C. gattii (C751), Sensitive, RPMI 1640 (0.2% Glucose), 37° C.): 1.6 µg/mL | MIC (Cryptococcus gattii [3]; C. gattii (C751), 30°C): 5.2 µM | MIC (Cryptococcus gattii [3]; C. gattii (WM275), Sensitive, RPMI 1640 (0.2% Glucose), 37° C.): 0.8 µg/mL | MIC (Cryptococcus gattii [3]; C. gattii (WM276), 30°C): 2.6 µM | MFC (Candida lusitaniae [4]): 50 µg/mL (≈ 163 µM) | MIC50 (Candida albicans [5]; ATCC90028, Candida albicans ATCC 90028): 1 µg/mL (≈ 3.27 µM) | polymer efficacy against budding yeasts, 50% (Candida albicans [5]; C. albicans CA1, ATCC90028, Blood): 1 | polymer efficacy against budding yeasts, 50% (Candida albicans [5]; C. albicans CA2, SC5314): 0.25 | polymer efficacy against budding yeasts, 50% (Candida albicans [5]; C. albicans CA3, Blood, Azole resistant): >64 | MIC50 (Candida albicans [5]; Candida albicans CA3, Resistance Azole): > 64 µg/mL | MIC (Candida albicans [5]; Candida albicans, C. albicans (E4), Amp B Resistant, RPMI 1640 (0.2% Glucose), […]10^5 cells/mL, 30° C.): > 200 µg/mL | MIC (Candida albicans [5]; Candida albicans, C. albicans (E4), […]10^3 cells/mL, 35°C): > 654 µM | MIC (Candida albicans [5]; Candida albicans, C. albicans (Gu5), Fluconazole Resistant, RPMI 1640 (0.2% Glucose), […]10^5 cells/mL, 30° C.): > 200 µg/mL | MIC (Candida albicans [5]; Candida albicans, C. albicans (Gu5), […]10^3 cells/mL, 35°C): > 654 µM | MIC (Candida albicans [5]; Candida albicans, C. albicans (K1), Fluconazole Resistant, RPMI 1640 (0.2% Glucose), […]10^5 cells/mL, 30° C.): > 200 µg/mL | MIC (Candida albicans [5]; Candida albicans, C. albicans (K1), […]10^3 cells/mL, 35°C): > 654 µM | MIC (Candida albicans [5]; Candida albicans, C. albicans (SCG5314), Sensitive, RPMI 1640 (0.2% Glucose), […]10^5 cells/mL, 30° C.): < 0.2 µg/mL | MIC50 (Candida albicans [5]; Candida albicans, SC5314): 0.25 µg/mL (≈ 0.816 µM) | MIC (Candida albicans [5]; Candida albicans, SC5314, C. albicans (SC5314), […]10^3 cells/mL, 35°C): > 654 µM | concentration at which strain was killed (MFC) (Cryptococcus neoformans [6]; C21F3): ~5 µM | MFC (Cryptococcus neoformans [6]; Cryptococcus neoformans, C. neoformans (C21F3), Rapamycin Resistant, RPMI 1640 (0.2% Glucose), […]10^3 cells/mL, 37° C.): 1.6 µg/mL (≈ 5.22 µM) | MIC (Cryptococcus spp.; Cryptococcus): ≤ 10 µM | MFC (Cryptococcus spp.; Cryptococcus test strains (FLC: all strains except C21F3), read-out: MFC): > 100 µM | polymer efficacy against budding yeasts, 50% (Cryptococcus neoformans [7]): >64 | polymer efficacy against budding yeasts, 50% (Cryptococcus neoformans [7]; C. neoformans CN1, Clinical isolate, Azole susceptible): 4 | MIC (Cryptococcus neoformans [7]; Cryptococcus neoformans, 48 h, C21F3, 30°C, OD600 48 h): 1.6 µg/mL | MIC (Cryptococcus neoformans [7]; Cryptococcus neoformans, 48 h, C21F3, 30°C, OD600 48 h, Table 15): 5.2 µM | MIC (Cryptococcus neoformans [7]; Cryptococcus neoformans, 48 h, H99, 30°C, OD600 48 h): 3.1 µg/mL | MIC (Cryptococcus neoformans [7]; Cryptococcus neoformans, 48 h, H99, 30°C, OD600 48 h, Table 15): 10.1 µM | MIC (Cryptococcus neoformans [7]; Cryptococcus neoformans, 48 h, JEC21, 30°C, OD600 48 h): 1.6 µg/mL | MIC (Cryptococcus neoformans [7]; Cryptococcus neoformans, 48 h, JEC21, 30°C, OD600 48 h, Table 15): 5.2 µM | MIC (Cryptococcus neoformans [7]; Cryptococcus neoformans, C. neoformans (C21F3), 30°C): 5.2 µM | MIC (Cryptococcus neoformans [7]; Cryptococcus neoformans, C. neoformans (H99), Sensitive, RPMI 1640 (0.2% Glucose), 37° C.): 3.1 µg/mL | MIC (Cryptococcus neoformans [7]; Cryptococcus neoformans, C. neoformans (H99), 30°C): 10.1 µM | MIC (Cryptococcus neoformans [7]; Cryptococcus neoformans, C. neoformans (JEC21), Sensitive, RPMI 1640 (0.2% Glucose), 37° C.): 1.6 µg/mL | MIC (Cryptococcus neoformans [7]; Cryptococcus neoformans, C. neoformans (JEC21), 30°C): 5.2 µM | MIC50 (Cryptococcus neoformans [7]; Cryptococcus neoformans, Cryptococcus neoformans CN1): 4 µg/mL (≈ 13.1 µM) | MIC (Candida lusitaniae [8]; CL3, […]10^3 cells/mL, 35°C, OD600 24 h, avg., listed as FLU): >200 µg/mL | MIC (Candida lusitaniae [8]; CL3, […]10^3 cells/mL, 35°C, OD600 24 h, avg., listed as FLU, read-out: MIC): >653.0 µM | MIC (Candida lusitaniae [8]; CL3, […]10^3 cells/mL, 35°C, OD600 24 h, trial 2, listed as FLU): >200 µg/mL | MIC (Candida lusitaniae [8]; CL3, […]10^3 cells/mL, 35°C, OD600 24 h, trial 2, listed as FLU, read-out: MIC): >653.0 µM | MIC (Candida lusitaniae [8]; CL3, […]10^5 cells/mL, 30°C, OD600 48 h, avg., listed as FLU): 0.8 µg/mL | MIC (Candida lusitaniae [8]; CL3, […]10^5 cells/mL, 30°C, OD600 48 h, avg., listed as FLU, read-out: MIC): 2.6 µM | MIC (Candida lusitaniae [8]; CL3, […]10^5 cells/mL, 30°C, OD600 48 h, trial 2, listed as FLU): 0.8 µg/mL | MIC (Candida lusitaniae [8]; CL3, […]10^5 cells/mL, 30°C, OD600 48 h, trial 2, listed as FLU, read-out: MIC): 2.6 µM | MIC (Candida lusitaniae [8]; Clavispora lusitaniae, 24 h, read-out: MIC): > 200 µg/mL and > 653 µM | MIC (Candida lusitaniae [8]; Clavispora lusitaniae, 48 h, read-out: MIC): 0.8 µg/mL and 2.6 µM

CCC(C)n1ncn(-c2ccc(N3CCN(c4ccc(OCC5COC(Cn6cncn6)(c6ccc(Cl)cc6Cl)O5)cc4)CC3)cc2)c1=O (stereo not drawn) [Itraconazole, itraconazole]
MIC (filamentous fungi; Penicillium expansum): 1 µg/mL (≈ 1.42 µM) | MIC (filamentous fungi; Talaromyces marneffei): 0.125 µg/mL (≈ 0.177 µM)
